Where a name gives a salt, the structure may show the parent alone. Read-outs that look alike come from different tables or passages of the source.
Experiments:
[1] = target: T1, JMJD2E (Homo sapiens, UniProt B2RXH2)
T1 sequence (B2RXH2 1-337): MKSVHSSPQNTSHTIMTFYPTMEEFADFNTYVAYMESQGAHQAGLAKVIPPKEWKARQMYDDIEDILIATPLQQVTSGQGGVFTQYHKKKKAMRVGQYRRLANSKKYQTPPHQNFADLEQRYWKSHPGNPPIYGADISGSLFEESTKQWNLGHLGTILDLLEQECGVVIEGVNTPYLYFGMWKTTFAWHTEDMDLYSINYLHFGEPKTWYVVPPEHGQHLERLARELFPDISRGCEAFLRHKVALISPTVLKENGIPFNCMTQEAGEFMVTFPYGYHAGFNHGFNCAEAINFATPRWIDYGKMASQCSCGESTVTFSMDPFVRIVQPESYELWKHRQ

[2] = target: T1, JMJD2E; experiment: kinetic analysis of the mode of inhibition of JMJD2E with respect to 2OG; type: biochemical
[3] = target: T1, JMJD2E; experiment: biochemical
[4] = target: T1, JMJD2E; experiment: miniaturized 1,536-well FDH-coupled JMJD2E qHTS assay; type: biochemical

IC50 [1] [µM] | αKi ([2]; uncompetitive with respect to 2OG) | Molecule | mode of inhibition of JMJD2E with respect to 2OG [2] | IC50 [3] [µM] | IC50 [4] [µM]
7.5 | 1.98 ± 0.17 | S(−)-Carbidopa | uncompetitive |  | 
 |  | Oc1cc2c(cc1O)[C@@H]1c3ccc(O)c(O)c3OC[C@]1(O)C2 [hematoxylin] |  | 3.4 | 2
 |  | Oc1cc(O)c2c(c1)O[C@H](c1cc(O)c(O)c(O)c1)[C@H](O)C2 [Epigallocatechin] |  |  | 5
 |  | CC1(C)CCC2=C(O1)c1ccccc1C(=O)C2=O [beta-Lapachone] |  | 8.4 | 3.6
 |  | Oc1ccc(C2CNCCc3c2cc(O)c(O)c3Cl)cc1 (stereo not shown) [Fenoldopam bromide] |  | 10.1 | 7.9
 |  | NCCc1ccc(O)c(O)c1 [Dopamine hydrochloride] |  | 2.2 | 7.1
6.1 |  | C[C@](N)(Cc1ccc(O)c(O)c1)C(=O)O [L-Methyldopa] |  |  | 
 |  | O=c1cc(-c2ccccc2)oc2cc(O)c(O)c(O)c12 [Baicalein] | noncompetitive | 4.5 | 4
 |  | NCCc1cc(O)c(O)cc1O [Oxidopamine Hydrochloride] |  | 12.2 | 4

Molecule | IC50 [1] [µM] | αKi ([2]; uncompetitive with respect to 2OG) | mode of inhibition of JMJD2E with respect to 2OG [2] | IC50 [3] [µM] | IC50 [4] [µM]
O=C(O[C@@H]1Cc2c(O)cc(O)cc2O[C@@H]1c1cc(O)c(O)c(O)c1)c1cc(O)c(O)c(O)c1 [Epigallocatechin gallate] | 3 |  |  |  | 
